Measured values as given in patent publication US8017612B2, “Piperazine compound and use thereof as a HCV polymerase inhibitor” (priority 2006, dated 2011).

What was measured:
[1] = biological target: T1, HCV polymerase (NS5B) type 1a (Hepatitis C virus genotype 1a, UniProt P26664); assay: Assay of enzyme (HCV polymerase) inhibitory activity, type 1a enzyme; type: biochemical, HCV type 1a (cloned from the blood of patients); conditions: HCV polymerase inhibitory activity IC50, 1a, type 1a enzyme
T1 construct: made in house; host or cells: Escherichia coli (by the 'similar method' of the 1b enzyme)
Summary of the method: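 Patient-derived type 1a NS5B (C-terminal 47-aa deletion, His-tagged, E. coli-expressed) at 1.5 μg/ml was reacted with 5 μg/ml 3′UTR-containing substrate RNA, 50 μM ATP/GTP/CTP, 2 μM UTP plus [3H]UTP, pH 7.5, 25° C for 60 min. TCA-precipitated RNA radioactivity was counted; IC50 from ± compound.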

[2] = biological target: T2, HCV polymerase (NS5B) type 1b (Hepatitis C virus genotype 1b, UniProt P26663); assay: Assay of enzyme (HCV polymerase) inhibitory activity, type 1b enzyme; type: biochemical, HCV BK strain (type 1b); conditions: HCV polymerase inhibitory activity IC50, 1b, type 1b enzyme
T2 construct: a region encoding NS5B (J Virol 1991 March, 65(3), 1105-13, 544 amino acids after deletion of 47 amino acids on the C-terminal); 6xHis (C); made in house; host or cells: Escherichia coli
Summary of the method: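 NS5B from HCV BK strain (type 1b), C-terminal 47 aa deleted, C-terminal His6-tagged, E. coli-expressed, 0.5 μg/ml, with ~450 nt substrate RNA carrying the 3′ UTR (polyU, 3′X) at 5 μg/ml. Incubation 60 min at 25 °C with 50 μM ATP/GTP/CTP, 2 μM UTP plus [3H]UTP, pH 7.5 Tris.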

Row | SMILES | IC50 [1] [µM] | IC50 [2] [µM]
1 | Cc1ncc2sc(N3CCN(S(=O)(=O)c4ccc(OC(F)(F)C(F)F)cc4)[C@@H](C(=O)NCc4ccc(OC(F)F)cc4)C3)nc2n1 [Example 1039, (R)-4-(5-methyl-thiazolo[4,5-d]pyrimidin-2-yl)-1-[4-(1,1,2,2-tetrafluoro-ethoxy)-benzenesulfonyl]-piperazine-2-carboxylic acid 4-difluoromethoxy-benzylamide] | < 0.1 | < 0.1
2 | O=C(NCc1ccc(OC(F)F)cc1F)[C@H]1CN(c2nc3nc(C4CC4)ncc3s2)CCN1S(=O)(=O)c1ccc(C(F)(F)F)cc1 [Example 1040, (R)-4-(5-cyclopropyl-thiazolo[4,5-d]pyrimidin-2-yl)-1-(4-trifluoromethyl-benzenesulfonyl)-piperazine-2-carboxylic acid 4-difluoromethoxy-2-fluoro-benzylamide] | < 0.1 | < 0.1
3 | CN(C)C(=O)c1ncc2sc(N3CCN(S(=O)(=O)c4ccc(OC(F)(F)F)cc4)[C@@H](C(=O)NCc4ccc(OC(F)(F)F)cc4)C3)nc2n1 [Example 1041, 2-[(R)-4-(4-trifluoromethoxy-benzenesulfonyl)-3-(4-trifluoromethoxy-benzylcarbamoyl)-piperazin-1-yl]-thiazolo[4,5-d]pyrimidine-5-carboxylic acid dimethylamide] | < 0.1 | < 0.1
4 | O=C(NCc1ccc(OC(F)F)cc1F)[C@H]1CN(c2nc3nc(C(F)(F)F)ncc3s2)CCN1S(=O)(=O)c1ccc(C(F)(F)F)cc1 [Example 1042, (R)-1-(4-trifluoromethyl-benzenesulfonyl)-4-(5-trifluoromethyl-thiazolo[4,5-d]pyrimidin-2-yl)-piperazine-2-carboxylic acid 4-difluoromethoxy-2-fluoro-benzylamide] | < 0.1 | < 0.1
5 | COCc1ncc2sc(N3CCN(S(=O)(=O)c4ccc(OC(F)(F)F)cc4)[C@@H](C(=O)NCc4ccc(OC(F)(F)F)cc4)C3)nc2n1 [Example 1043, (R)-4-(5-methoxymethyl-thiazolo[4,5-d]pyrimidin-2-yl)-1-(4-trifluoromethoxy-benzenesulfonyl)-piperazine-2-carboxylic acid 4-trifluoromethoxy-benzylamide] | < 0.1 | < 0.1
6 | O=C(NCc1ccc(OC(F)F)cc1F)[C@H]1CN(c2nc3nc(C(F)(F)F)ncc3s2)CCN1S(=O)(=O)c1ccc(OC(F)(F)F)cc1 [Example 1044, (R)-1-(4-trifluoromethoxy-benzenesulfonyl)-4-(5-trifluoromethyl-thiazolo[4,5-d]pyrimidin-2-yl)-piperazine-2-carboxylic acid 4-difluoromethoxy-2-fluoro-benzylamide] | < 0.1 | < 0.1
7 | O=C(NCc1ccc(OC(F)F)cc1F)[C@H]1CN(c2nc3nc(C4CC4)ncc3s2)CCN1S(=O)(=O)c1ccc(OC(F)(F)F)cc1 [Example 1045, (R)-4-(5-cyclopropyl-thiazolo[4,5-d]pyrimidin-2-yl)-1-(4-trifluoromethoxy-benzenesulfonyl)-piperazine-2-carboxylic acid 4-difluoromethoxy-2-fluoro-benzylamide] | < 0.1 | < 0.1
8 | CNC(=O)c1ncc2sc(N3CCN(S(=O)(=O)c4ccc(OC(F)(F)F)cc4)[C@@H](C(=O)NCc4ccc(OC(F)(F)F)cc4)C3)nc2n1 [Example 1046, 2-[(R)-4-(4-trifluoromethoxy-benzenesulfonyl)-3-(4-trifluoromethoxy-benzylcarbamoyl)-piperazin-1-yl]-thiazolo[4,5-d]pyrimidine-5-carboxylic acid methylamide] | < 0.1 | < 0.1
9 | CC(C)(O)c1ncc2sc(N3CCN(S(=O)(=O)c4ccc(OC(F)(F)F)cc4)[C@@H](C(=O)NCc4ccc(OC(F)(F)F)cc4)C3)nc2n1 [Example 1047, (R)-4-[5-(1-hydroxy-1-methyl-ethyl)-thiazolo[4,5-d]pyrimidin-2-yl]-1-(4-trifluoromethoxy-benzenesulfonyl)-piperazine-2-carboxylic acid 4-trifluoromethoxy-benzylamide] | < 0.1 | < 0.1
10 | CC(=O)c1ncc2sc(N3CCN(S(=O)(=O)c4ccc(OC(F)(F)F)cc4)[C@@H](C(=O)NCc4ccc(OC(F)(F)F)cc4)C3)nc2n1 [Example 1048, (R)-4-(5-acetyl-thiazolo[4,5-d]pyrimidin-2-yl)-1-(4-trifluoromethoxy-benzenesulfonyl)-piperazine-2-carboxylic acid 4-trifluoromethoxy-benzylamide] | < 0.1 | < 0.1
11 | O=C(NCc1ccc(OC(F)(F)F)cc1)[C@H]1CN(c2nn3c(C(F)(F)F)cc(=O)nc3s2)CCN1S(=O)(=O)c1ccc(OC(F)(F)F)cc1 [Example 1049, (R)-4-(7-oxo-5-trifluoromethyl-7H-[1,3,4]thiadiazolo[3,2-a]pyrimidin-2-yl)-1-(4-trifluoromethoxy-benzenesulfonyl)-piperazine-2-carboxylic acid 4-trifluoromethoxy-benzylamide] | < 0.1 | < 0.1
12 | COc1ccc2nc(N3CCN(S(=O)(=O)c4ccc(OC(F)(F)F)cc4)[C@@H](C(=O)NCc4ccc(OC(F)(F)F)cc4)C3)sc2n1 [Example 1050, (R)-4-(5-methoxy-thiazolo[5,4-b]pyridin-2-yl)-1-(4-trifluoromethoxy-benzenesulfonyl)-piperazine-2-carboxylic acid 4-trifluoromethoxy-benzylamide] | 0.1 to 1 | 0.1 to 1
13 | Cc1ncc2sc(N3CCN(S(=O)(=O)c4ccc(OC(F)(F)C(F)F)cc4)[C@@H](C(=O)NCc4ccc(OC(F)(F)F)cc4)C3)nc2n1 [Example 1051, (R)-4-(5-methyl-thiazolo[4,5-d]pyrimidin-2-yl)-1-[4-(1,1,2,2-tetrafluoro-ethoxy)-benzenesulfonyl]-piperazine-2-carboxylic acid 4-trifluoromethoxy-benzylamide] | < 0.1 | < 0.1
14 | O=C(NCc1ccc(OC(F)(F)F)cc1)[C@H]1CN(c2nc3nc(CO)ncc3s2)CCN1S(=O)(=O)c1ccc(C(F)(F)F)cc1 [Example 1052, (R)-4-(5-hydroxymethyl-thiazolo[4,5-d]pyrimidin-2-yl)-1-(4-trifluoromethyl-benzenesulfonyl)-piperazine-2-carboxylic acid 4-trifluoromethoxy-benzylamide] | < 0.1 | < 0.1
15 | O=C(NCc1ccc(OC(F)F)cc1)[C@H]1CN(c2nn3ccc(=O)nc3s2)CCN1S(=O)(=O)c1ccc(OC(F)(F)F)cc1 [Example 1053, (R)-4-(7-oxo-7H-[1,3,4]thiadiazolo[3,2-a]pyrimidin-2-yl)-1-(4-trifluoromethoxy-benzenesulfonyl)-piperazine-2-carboxylic acid 4-difluoromethoxy-benzylamide] | < 0.1 | < 0.1
16 | CON(C)C(=O)c1ncc2sc(N3CCN(S(=O)(=O)c4ccc(OC(F)(F)F)cc4)[C@@H](C(=O)NCc4ccc(OC(F)(F)F)cc4)C3)nc2n1 [Example 1054, 2-[(R)-4-(4-trifluoromethoxy-benzenesulfonyl)-3-(4-trifluoromethoxy-benzylcarbamoyl)-piperazin-1-yl]-thiazolo[4,5-d]pyrimidine-5-carboxylic acid methoxy-methyl-amide] | < 0.1 | < 0.1
17 | COCc1nc(N)c2sc(N3CCN(S(=O)(=O)c4ccc(OC(F)(F)F)cc4)[C@@H](C(=O)NCc4ccc(OC(F)(F)F)cc4)C3)nc2n1 [Example 1055, (R)-4-(7-amino-5-methoxymethyl-thiazolo[4,5-d]pyrimidin-2-yl)-1-(4-trifluoromethoxy-benzenesulfonyl)-piperazine-2-carboxylic acid 4-trifluoromethoxy-benzylamide] | < 0.1 | < 0.1
18 | O=C(NCc1ccc(OC(F)(F)F)cc1)[C@H]1CN(c2nc3nc(CN4CCCC4)ncc3s2)CCN1S(=O)(=O)c1ccc(OC(F)(F)F)cc1 [Example 1056, (R)-4-(5-pyrrolidin-1-ylmethyl-thiazolo[4,5-d]pyrimidin-2-yl)-1-(4-trifluoromethoxy-benzenesulfonyl)-piperazine-2-carboxylic acid 4-trifluoromethoxy-benzylamide] | < 0.1 | < 0.1
19 | O=C(NCc1ccc(OC(F)F)cc1)[C@H]1CN(c2nn3ccc(=O)nc3s2)CCN1S(=O)(=O)c1ccc(C(F)(F)F)cc1 [Example 1057, (R)-4-(7-oxo-7H-[1,3,4]thiadiazolo[3,2-a]pyrimidin-2-yl)-1-(4-trifluoromethyl-benzenesulfonyl)-piperazine-2-carboxylic acid 4-difluoromethoxy-benzylamide] | < 0.1 | < 0.1
20 | O=C(NCc1ccc(OC(F)(F)F)cc1)[C@H]1CN(c2nn3ccc(=O)nc3s2)CCN1S(=O)(=O)c1ccc(OC(F)F)cc1 [Example 1058, (R)-1-(4-difluoromethoxy-benzenesulfonyl)-4-(7-oxo-7H-[1,3,4]thiadiazolo[3,2-a]pyrimidin-2-yl)-piperazine-2-carboxylic acid 4-trifluoromethoxy-benzylamide] | < 0.1 | < 0.1
